Data published in paper PMC12198282, “Application of a high-density microelectrode array assay using a 3D human iPSC-derived brain microphysiological system model for in vitro neurotoxicity screening of environmental compounds” (Archives of Toxicology, 2025).
Read-outs that look alike come from different tables or passages of the source.

What was measured:
[1] = test system: 2D rat cortical cultures; settings: cited from earlier work
[2] = test system: human iPSC-derived 3D BrainSpheres; assay: BrainSphere MEA assay (HD-MEA, 13-day exposure, concentration-response); assay type: cell-based; settings: for AC50: concentration at 50% maximal activity, Supplement 3 prints it also for curves with hit call 0; for hitc Mean.Spheroid.Burst.Duration: key: 1 (active); 0 (inactive); for hitc Mean.Spheroid.Burst.ISI: key: 1 (active); 0 (inactive); for hitc Mean.Spheroid.Burst.Peak.Firing.Rate: key: 1 (active); 0 (inactive); for hitc Mean.Spheroid.Firing.Rate: key: 1 (active); 0 (inactive); for hitc Mean.Spheroid.IBI: key: 1 (active); 0 (inactive); for hitc Mean.Spheroid.Nonburst.ISI: key: 1 (active); 0 (inactive); for hitc Mean.Spheroid.Spikes.per.Burst.per.Electrode: key: 1 (active); 0 (inactive); for hitc Mean.Spheroid.Spikes.per.Burst: key: 1 (active); 0 (inactive); for hitc Spheroid.Burst.Frequency: key: 1 (active); 0 (inactive); for hitc Spheroid.Spike.Amplitude.90th.Percentile: key: 1 (active); 0 (inactive)
Protocol: A volume of 1 ml of Tergazyme (1% solution in deionized water) was added to each well of the MaxTwo 6-Well Plate (MaxWell Biosystems) and incubated overnight under constant gyratory shaking (88 RPM) at 37 °C and 5% CO2. The next day, Tergazyme solution was removed, and plates were washed with distilled water and ethanol. After remaining ethanol was evaporated, wells were washed with PBS. Then, 200 µl of Poly-D-Lysine (Gibco, A38904 - 01) was added on top of the electrodes and incubated at 37 °C and 5% CO2 for 3 h (humidified). Poly-D-Lysine was then removed, and wells were coated with 100 µl of 0.1 mg/ml laminin coating solution (Sigma-Aldrich, L2020 - 1 mg) and incubated for 2 h at 37 ℃ and 5% CO2 (humidified). The laminin was removed after incubation. Using a 1 ml micropipette, 1 ml of medium containing BrainSpheres (7 weeks differentiated), approximately 25 BrainSpheres per ml, was plated on top of the HD-MEA chip (Fig. 1A). Afterwards, the plate was placed in an incubator at 37 °C and 5% CO2 and moved in circles to accumulate the BrainSpheres on top of the electrode area (Fig. 1A). The plate was kept in an incubator (humidified) for 2 days to allow attachment of the BrainSpheres with no gyratory shaking of the plates.
The MaxTwo high-density microelectrode array system (MaxWell Biosystems AG, Zurich, Switzerland) was used to measure neural activity with MaxTwo 6-well plates, where every well includes an integrated chip with 26,400 platinum electrodes arranged in an area of 3.85 × 2.10 mm^2 ([…]) (Muller et al. [2015]). The data were recorded and analyzed with the MaxLab Live Software (version 22.2.22). First, the MaxLab live ActivityScan Assay was used to identify the activity and positioning of the BrainSpheres on the array by scanning all the 26,400 electrodes in 29 configurations in a well (Assay Parameters: Configuration = Full; Recording time per configuration = 60 s (s)). The settings gain = 512, high-pass-filter (HPF): ~ 1 Hz and spike threshold = 5 X root-mean square (RMS) noise were used for all HD-MEA recordings. Circular regions of interest (ROI) were manually selected in the Activity Map where neuronal activity was apparent by an increased activity (Fig. 2). Over the course of the 13-day experiment, the same selected regions and electrodes were measured using the MaxLab Live Network Assay (600 s recording time).
A custom analysis framework was used to extract the MaxLab Live neuronal metrics for the individual BrainSpheres. For this, electrodes comprising a single ROI (i.e., individual BrainSphere; Fig. 2D) were grouped using distance-based clustering (fcluster method of Scipy library, Python 3.7) and neural metrics were calculated for the clustered electrodes for every ROI separately. Figure 2E presents a raster plot illustrating the activity associated with individual Regions of Interest (ROIs). […] Ten MaxLab Live neural metrics (endpoints) were evaluated from the MaxLab live ActivityScan and Network Assay in this study. See Table 3 for the endpoint definitions, tuned parameters, and activity type (general versus network connectivity).
The BrainSphere MEA assay measured changes in neural activity during a 13-day chemical exposure. The first recording day of the concentration–response screening protocol (day of exposure (DOE) 0) occurred after 7 weeks of BrainSphere differentiation, 48 h after plating on HD-MEA plates (Fig. 1B). The study included at least three biological replicates (one well per plate) from separate experiments (e.g., three different plates on three different days) and each well included multiple BrainSpheres which were considered technical replicates.

[3] = test system: 2D rat cortical cultures; settings: cytotoxicity LDH, cited from earlier work
[4] = AUC over 13-day exposure, tcplfit2
[5] = tcplfit2 BMD at benchmark response (1.349*SD of baseline controls)
[6] = tcplfit2 output ACC, activity cutoff in Supplemental Table 1
[7] = top of winning model, response normalized as percent of vehicle control, negative = decrease

Brc1ccc(Oc2ccc(Br)cc2Br)c(Br)c1 [BDE- 47]
hitc CCTE_Shafer_MEA_dev_AB ([1]; rNFA mc5 hit call, cytotoxicity AlamarBlue): 1 | AC50 ([1]; read-out: ac50 CCTE_Shafer_MEA_dev_AB, rNFA mc5, cytotoxicity AlamarBlue): 8.31 µM | Cytotoxicity in the resazurin assay of the rNFA (in words) ([1]; ref Brown et al. [2016], Carstens et al. [2022], Frank et al. [2017b], Shafer et al. [2019], ToxCast invitrodb (v4.2)): demonstrating cytotoxicity in the rNFA | EC50 ([2]; 5th percentile across active AC50 values per chemical, read-out: Minimum potency): 8.22 µM | Difference of minimum potency between BrainSphere MEA assay and rNFA ([2]; 5th percentile of AC50 values by chemical, above 0.5 = more potent in the rNFA): more than 0.5 log10 µM | hitc Mean.Spheroid.Burst.Duration [2, 4]: 1 | hitc Mean.Spheroid.Burst.ISI [2, 4]: 1 | hitc Mean.Spheroid.Burst.Peak.Firing.Rate [2, 4]: 1 | hitc Mean.Spheroid.Firing.Rate [2, 4]: 1 | hitc Mean.Spheroid.IBI [2, 4]: 0 | hitc Mean.Spheroid.Nonburst.ISI [2, 4]: 0 | hitc Mean.Spheroid.Spikes.per.Burst [2, 4]: 1 | hitc Mean.Spheroid.Spikes.per.Burst.per.Electrode [2, 4]: 1 | hitc Spheroid.Burst.Frequency [2, 4]: 1 | hitc Spheroid.Spike.Amplitude.90th.Percentile [2, 4]: 1 | AC50 ([2]; listed as BDE-47, read-out: ac50 Mean.Spheroid.Burst.Duration): 14.4 µM | AC50 ([2]; listed as BDE-47, read-out: ac50 Mean.Spheroid.Burst.Peak.Firing.Rate): 9.74 µM | AC50 ([2]; listed as BDE-47, read-out: ac50 Mean.Spheroid.Firing.Rate): 7.84 µM | AC50 ([2]; listed as BDE-47, read-out: ac50 Spheroid.Burst.Frequency): 8.92 µM | AC50 ([2]; listed as BDE-47, read-out: ac50 Spheroid.Spike.Amplitude.90th.Percentile): 13.4 µM | AC50 ([2]; listed as BDE−47, read-out: ac50 Mean.Spheroid.Burst.Duration): 14 µM | AC50 ([2]; listed as BDE−47, read-out: ac50 Mean.Spheroid.Burst.Peak.Firing.Rate): 9.7 µM | AC50 ([2]; listed as BDE−47, read-out: ac50 Mean.Spheroid.Firing.Rate): 7.8 µM | AC50 ([2]; listed as BDE−47, read-out: ac50 Spheroid.Burst.Frequency): 8.9 µM | AC50 ([2]; listed as BDE−47, read-out: ac50 Spheroid.Spike.Amplitude.90th.Percentile): 13 µM | AC50 ([2]; read-out: ac50 Mean.Spheroid.Burst.ISI): 13.4 µM | AC50 ([2]; read-out: ac50 Mean.Spheroid.IBI): 45 µM | AC50 ([2]; read-out: ac50 Mean.Spheroid.Spikes.per.Burst): 14.3 µM | AC50 ([2]; read-out: ac50 Mean.Spheroid.Spikes.per.Burst.per.Electrode): 8.93 µM | EC50 ([2]; mean across active AC50 values per chemical, read-out: Mean potency): 11.4 µM | Percent active ([2]; metrics active out of the total number of metrics screened): 80% | BMD Mean.Spheroid.Burst.Duration [2, 5]: 8.9 µM | BMD Mean.Spheroid.Burst.ISI [2, 5]: 7.8 µM | BMD Mean.Spheroid.Burst.Peak.Firing.Rate [2, 5]: 7.1 µM | BMD Mean.Spheroid.Firing.Rate [2, 5]: 7.9 µM | BMD Mean.Spheroid.IBI [2, 5]: 34 µM | BMD Mean.Spheroid.Nonburst.ISI [2, 5]: 48 µM | BMD Mean.Spheroid.Spikes.per.Burst [2, 5]: 12 µM | BMD Mean.Spheroid.Spikes.per.Burst.per.Electrode [2, 5]: 7 µM | BMD Spheroid.Burst.Frequency [2, 5]: 10 µM | BMD Spheroid.Spike.Amplitude.90th.Percentile [2, 5]: 6.7 µM | ACC Mean.Spheroid.Burst.Duration [2, 6]: 7.9 µM | ACC Mean.Spheroid.Burst.ISI [2, 6]: 4.8 µM | ACC Mean.Spheroid.Burst.Peak.Firing.Rate [2, 6]: 6.6 µM | ACC Mean.Spheroid.Firing.Rate [2, 6]: 11 µM | ACC Mean.Spheroid.IBI [2, 6]: 50 µM | ACC Mean.Spheroid.Nonburst.ISI [2, 6]: 55 µM | ACC Mean.Spheroid.Spikes.per.Burst [2, 6]: 17 µM | ACC Mean.Spheroid.Spikes.per.Burst.per.Electrode [2, 6]: 8.2 µM | ACC Spheroid.Burst.Frequency [2, 6]: 8.5 µM | ACC Spheroid.Spike.Amplitude.90th.Percentile [2, 6]: 9.5 µM | Top Mean.Spheroid.Burst.Duration [2, 7]: −93 | Top Mean.Spheroid.Burst.ISI [2, 7]: −93 | Top Mean.Spheroid.Burst.Peak.Firing.Rate [2, 7]: −93 | Top Mean.Spheroid.Firing.Rate [2, 7]: −92 | Top Mean.Spheroid.IBI [2, 7]: −81 | Top Mean.Spheroid.Nonburst.ISI [2, 7]: −74 | Top Mean.Spheroid.Spikes.per.Burst [2, 7]: −93 | Top Mean.Spheroid.Spikes.per.Burst.per.Electrode [2, 7]: −92 | Top Spheroid.Burst.Frequency [2, 7]: −95 | Top Spheroid.Spike.Amplitude.90th.Percentile [2, 7]: −22 | Hits ([2]; total number of active endpoints out of 10 MEA activity metrics, 13-day exposure): 8 | hitc CCTE_Shafer_MEA_dev_LDH ([3]; rNFA mc5 hit call): 1 | AC50 ([3]; read-out: ac50 CCTE_Shafer_MEA_dev_LDH, rNFA mc5): 12.3 µM
